Test [1] deals with C. glabrata # ATCC 2950. Description: Checkerboard microdilution MIC of azole and quaternary ammonium salt combinations. The note with it: for MIC: Nakaseomyces glabratus, ATCC2950, fluconazole alone or its concentration in the combination. The test is classed as cell-based, Candida glabrata. The source says: (§1) Interactions between the selected azoles and quaternary ammonium salts (quats) were characterized via changes in minimum inhibitory concentration (MIC) using a checkerboard method in 96-well plates. This method is adapted from the microdilution method outlined in CLSI, M27-A3 (2008), —Reference Method for Broth Dilution Antifungal Susceptibility Testing of Yeasts; Approved Standard—3rd Edition.
(§2) Briefly, X and Y axes were established on the plates to serve as MIC controls for the compounds acting individually. Two-compound interactions were evaluated at the X-Y axis intersection of the two single-drug concentration axes.
(§3) Frozen concentrated stock compound solutions were used as the starting point in making the dilution series. […] One-quarter of the final well volume of the 4× stock was added to the appropriate wells. For wells with a second compound, one-quarter of the final well volume of the second compound was also added. An equivalent volume of culture media was added to wells in which only a single compound was tested.
(§4) Final well volume was either 100 μl or 200 μl depending on assay run. After addition of the 4× stocks and/or media, one-half of the final well volume of 5×10^3 CFU/mL yeast inoculum was added to each test well. Yeast inoculums were made from a 0.5 McFarland-matched culture that had been growing for 4-5 hours at 37° C. in trypticase soy broth (TSB). Each assay plate also included inoculum-only growth control wells (half the final well volume of inoculum plus the other half culture media) and culture media-only control wells. The inoculated plates were cultured aerobically in a humidified 36° C. room air incubator for 18 hours or 24 hours (±1 hour), depending on assay run, at which time growth was scored. The scored plates were then returned to the incubator for an additional 24 hours (±1 hour) of culturing and scored a second time (at 42 or 48 hours total culturing time).
(§5) Unless stated otherwise, yeast growth was scored using the subjective five tier numerical score (NS) scale established in CLSI M27-A3: 4=no reduction in growth relative to control, 3=slight reduction in growth (-25% reduction), 2=prominent decrease in growth (˜50% reduction), 1=slightly hazy growth (-75% reduction), 0 =no visible growth. Growth is scored relative to the on-plate inoculum control.
(§6) The checkerboard plate data was utilized to derive a fractional inhibitory concentration index (FICI) value that scores the interaction between compounds on a three category interaction scale: FICI <0.5 indicates synergy, FICI 0.5-4 indicates no interaction, and FICI >4 indicates antagonism. The FICI equation is: […]

Test [2] deals with C. albicans #ATCC 10231. The description is as above. The format is cell-based, Candida albicans. The note with it: for MIC: Candida albicans.
Text: as §1, §2, §3, §4, §5, §6

Where [3] appears, read: TSB media, 48 hours post inoculation, benzalkonium-Cl alone or its concentration in the combination.

Broadly, the MIC is the smallest concentration in the dilution series that meets the test's criterion for growth inhibition. Turning to `OC(Cn1cncn1)(Cn1cncn1)c1ccc(F)cc1F` [Fluconazole, fluconazole], the MIC in test [1] (RPMI media, 48 hours post inoculation) was 16 µg/mL; in test [1] (TSB media, 42 hours post inoculation, NS≦2 is efficacious) it was 16 µg/mL; in test [2] (ATCC10231, 48 h, RPMI media, 48 hours post inoculation, fluconazole alone or its concentration in the combination), 128 µg/mL; in test [2] (ATCC10231, TSB media, 42 hours post inoculation, NS≦2 is efficacious, fluconazole alone or its concentration in the combination), 256 µg/mL; in test [2] (ATCC10231, TSB media, 48 hours post inoculation, fluconazole alone or its concentration in the combination with benzalkonium-Cl) it was 64 µg/mL. Further, the “Fluconazole MIC” value in test [1] (TSB media, 48 hours post inoculation, fluconazole alone or its concentration in the combination with benzalkonium-Cl) turned out to be 16 µg/mL.
Take benzalkonium chloride [Benzalkonium-Cl]: the entries for the “Benzalkonium-Cl MIC” value in test [1] (setting [3]) and in test [2] (setting [3]) were 1.9 µg/mL and 3.8 µg/mL, respectively.

Values taken from patent publication US20150182527A1, “COMPOSITIONS, DEVICES AND METHODS OF TREATING INFECTIONS” (COOK MEDICAL TECHNOLOGIES LLC, priority 2014, published 2015).
